What follows are compounds tested against T1, Autotaxin enzyme (ATX) (Homo sapiens, UniProt Q13822) (assay: In vitro ATX assay (enzymatic ATX inhibition, LPC 14:0 substrate, choline oxidase/HRP absorbance readout)). Conditions: 0.3 mM LPC 14:0, 37° C., 4 hours, absorbance 555 nm.
T1 construct: purchased Echelon Biosciences, Inc. E-4000
Format: biochemical
Experimental: • Assay buffer: 100 mM Tris-HCl, pH 9.0, 500 mM NaCl, 5 mM MgCl2, 30 μM CoCl2, 0.05% Triton X-100 • Assay buffer II: 4.5 mM 4-AAP, 2.7 mM TOOS, 21.2 U/mL HRP, 3 U/mL CO, In 50 mM Tris-HCl pH 8.0, 4.5 mM MgCl2
A compound preparation plate (Nunc 249944) was prepared by adding 30 mM stock solution (in DMSO) of test compound and performing a serial full-log dilution down to 30 nM. Two μL/well were transferred from the first compound prep plate to a compound dilution plate (Corning, 3641) and 198 μL assay buffer I was added for a […].
A 10 ng/mL solution of ATX was prepared by diluting in assay buffer I, and 80 μL/well were added to the assay plate (Corning, 3641); negative control wells contained 80 μL/well assay buffer I only (no ATX). Ten μL/well from the compound dilution plate (containing serially diluted test compound or DMSO) were added to the assay plate, which was then incubated at 37° C. for 15 minutes. A solution of LPC 14:0 was prepared in assay buffer I at 3 mM and 10 μl/well were added to the assay plate, for a final concentration of 0.3 mM LPC, and returned to 37° C. incubator for 4 hours. After 4 hour incubation, 100 μL/well of assay buffer II was added to all wells of the assay plate. The plate was incubated at RT for 15 minutes, prior to reading on FlexStation in absorbance mode, 555 nm. Results in the enzymatic ATX inhibition assay are provided for compounds of formula (I). An IC50 value of “A” is less than 100 nM, “B” is equal to or greater than 100 nM but less than 1 μM, “C” is equal to or greater than 1 μM.

IC50 [nM]	SMILES
< 100	CC(C)Oc1cc(CNc2ncc(C(=O)N3CCC34COC4)cn2)cc(OC(C)C)c1 [Example 52]
< 100	CCOc1cc(CNc2ncc(C(=O)N3CCC34COC4)cn2)cc(OCC)c1 [Example 53]
100 to 1000	O=C(c1cnc(NCc2cc(Cl)ccc2Cl)nc1)N1CCC12COC2 [Example 54]
100 to 1000	O=C(c1cnc(NCc2cccc(Cl)c2Cl)nc1)N1CCC12COC2 [Example 55]
< 100	O=C(c1cnc(NC2Cc3ccc(Cl)cc3C2)nc1)N1CCC1 (centres unmarked) [Example 56]
< 100	COC[C@@H]1CCN1C(=O)c1cnc(NC2Cc3ccc(Cl)cc3C2)nc1 (some centres unmarked) [Example 57]
< 100	CC(C)Oc1cc(CNc2ncc(C(=O)N3CCC3C(C)(C)O)cn2)cc(OC(C)C)c1 (centres unmarked) [Example 58]
< 100	CC(C)Oc1cc(CNc2ncc(C(=O)N3CCC3C(C)(C)O)cn2)cc(C2CC2)c1 (centres unmarked) [Example 59]
< 100	CC(C)(O)C1CCN1C(=O)c1cnc(NC2Cc3ccc(Cl)cc3C2)nc1 (centres unmarked) [Example 60]
100 to 1000	O=C(c1cnc(N[C@H]2Cc3ccc(Br)cc3C2)nc1)N1CCC12COC2 [Example 61]
< 100	O=C(c1cnc(N[C@@H]2Cc3ccc(Br)cc3C2)nc1)N1CCC12COC2 [Example 62]
100 to 1000	CC(C)Oc1cc(CNc2ncc(C(=O)N3CCC34COC4)cn2)cc(N2CCC2)c1 [Example 63]
< 100	CC(C)c1cc(CNc2ncc(C(=O)N3CCC3C(C)(C)O)cn2)cc(OC(F)(F)F)c1 (centres unmarked) [Example 64]
< 100	CC(C)(O)C1CCN1C(=O)c1cnc(NCc2cc(C3CC3)cc(C3CC3)c2)nc1 (centres unmarked) [Example 65]
< 100	CCOc1cc(CNc2ncc(C(=O)N3CCC3C(C)(C)O)cn2)cc(OC(F)(F)F)c1 (centres unmarked) [Example 66]
< 100	CCOc1cc(CNc2ncc(C(=O)N3CCC34COC4)cn2)cc(C2CC2)c1 [Example 67]
< 100	CC(C)(O)C1CCN1C(=O)c1cnc(NCc2cc(OC(F)(F)F)cc(N3CCC3)c2)nc1 (centres unmarked) [Example 68]
100 to 1000	O=C(c1cnc(NCc2cccc(OC(F)(F)F)c2)cn1)N1CCC12COC2 [Example 71, 6-Oxa-1-azaspiro[3.3]heptan-1-yl(5-((3-(trifluoromethoxy)benzyl)|amino)pyrazin-2-yl)methanone]
≥ 1000	O=C(c1ccc(NCc2cccc(OC(F)(F)F)c2)nn1)N1CCC12COC2 [Example 72, 6-Oxa-1-azaspiro[3.3]heptan-1-yl(6-((3-(trifluoromethoxy)benzyl)amino)pyridazin-3-yl)methanone]
≥ 1000	O=C(c1ccc(NCc2cccc(OC(F)(F)F)c2)nc1)N1CCC12COC2 [Example 73, 6-Oxa-1-azaspiro[3.3]heptan-1-yl(6-((3-(trifluoromethoxy)benzyl)amino)pyridin-3-yl)methanone]
100 to 1000	CC(C)c1cc(CNc2cnc(C(=O)N3CCC3)cn2)cc(OC(F)(F)F)c1 [Example 74, Azetidin-1-yl(5-((3-isopropyl-5-(trifluoromethoxy)benzyl)amino)pyrazin-2-yl)methanone]

IC50 [nM]	SMILES
< 100	CC(C)c1cc(CNc2cnc(C(=O)N3CCC34COC4)cn2)cc(OC(F)(F)F)c1 [Example 75, (5-((3-Isopropyl-5-(trifluoromethoxy)benzyl)amino)pyrazin-2-yl)(6-oxa-1-azaspiro[3.3]heptan-1-yl)methanone]
< 100	CC(C)c1cc(CNc2ccc(C(=O)N3CCC34COC4)cn2)cc(OC(F)(F)F)c1 [Example 76, (6-((3-Isopropyl-5-(trifluoromethoxy)benzyl)amino)pyridin-3-yl)(6-oxa-1-azaspiro[3.3]heptan-1-yl)methanone]
< 100	O=C(c1ccc(NCc2cc(OC(F)(F)F)cc(C3CC3)c2)nc1)N1CCC12COC2 [Example 77, (6-((3-Cyclopropyl-5-(trifluoromethoxy)benzyl)amino)pyridin-3-yl)(6-oxa-1-azaspiro[3.3]heptan-1-yl)methanone]
100 to 1000	O=C(c1ccc(NC2Cc3ccc(Cl)cc3C2)nc1)N1CCC12COC2 (centres unmarked) [Example 78, (6-((5-Chloro-2,3-dihydro-1H-inden-2-yl)amino)pyridin-3-yl)(6-oxa-1-azaspiro[3.3]heptan-1-yl)methanone]
< 100	O=C(c1cnc(NCc2cc(OC(F)(F)F)cc(C3CC3)c2)nc1)N1CCC12CCC2 [Example 79, (2-((3-Cyclopropyl-5-(trifluoromethoxy)benzyl)amino)pyrimidin-5-yl)(1-azaspiro[3.3]heptan-1-yl)methanone]
< 100	O=C(c1cnc(NCc2cc(OC(F)(F)F)cc(C3CC3)c2)nc1)N1CCC12COC2 [Example 80, (2-((3-cyclopropyl-5-(trifluoromethoxy)benzyl)ami-no)pyrimidin-5-yl)(6-oxa-1-azaspiro[3.3]heptan-1-yl)-methanone]
< 100	O=C(c1cnc(NCc2cc(OC(F)(F)F)cc(C3CC3)c2)nc1)N1CCC1 [Example 81, azetidin-1-yl(2-((3-cyclopropyl-5-(trifluoro-methoxy)benzyl)amino)-pyrimidin-5-yl)methanone]
100 to 1000	O=C(c1cnc(NCc2cc(OC(F)(F)F)cc(C3CC3)c2)nc1)N1CC2(COC2)C1 [Example 82, (2-((3-cyclopropyl-5-(trifluoromethoxy)benzyl)ami-no)pyrimidin-5-yl)(2-oxa-6-azaspiro[3.3]heptan-6-yl)methanone]
100 to 1000	O=C(c1cnc(NCc2cc(OC(F)(F)F)cc(C3CC3)c2)nc1)N1CC(O)C1 [Example 83, (2-((3-cyclopropyl-5-(trifluoromethoxy)benzyl)ami-no)pyrimidin-5-yl)(3-hydroxyazetidin-1-yl)-methanone]
100 to 1000	CC(C)(O)C1CN(C(=O)c2cnc(NCc3cc(OC(F)(F)F)cc(C4CC4)c3)nc2)C1 [Example 84, (2-((3-cyclopropyl-5-(trifluoromethoxy)benzyl)ami-no)pyrimidin-5-yl)(3-(2-hydroxypropan-2-yl)azetidin-1-yl)methanone]
< 100	O=C(c1cnc(NCc2cc(OC(F)(F)F)cc(C3CC3)c2)nc1)N1CC(F)C1 [Example 85, (2-((3-cyclopropyl-5-(trifluoromethoxy)benzyl)ami-no)pyrimidin-5-yl)(3-fluoroazetidin-1-yl)-methanone]
100 to 1000	O=C(c1cnc(NCc2cc(OC(F)(F)F)cc(C3CC3)c2)nc1)N1CC(F)(F)C1 [Example 86, (2-((3-cyclopropyl-5-(trifluoromethoxy)benzyl)ami-no)pyrimidin-5-yl)(3,3-difluroazetidin-1-yl)-methanone]
100 to 1000	CC1(O)CN(C(=O)c2cnc(NCc3cc(OC(F)(F)F)cc(C4CC4)c3)nc2)C1 [Example 87, (2-((3-cyclopropyl-5-(trifluoromethoxy)benzyl)ami-no)pyrimidin-5-yl)(3-hydroxy-3-methylazetidin-1-yl)methanone]
100 to 1000	CS(=O)(=O)C1CN(C(=O)c2cnc(NCc3cc(OC(F)(F)F)cc(C4CC4)c3)nc2)C1 [Example 88, (2-((3-cyclopropyl-5-(trifluoromethoxy)benzyl)ami-no)pyrimidin-5-yl)(3-(methylsulfonyl)azetidin-1-yl)methanone]
< 100	CC1(C)CCN1C(=O)c1cnc(NCc2cc(OC(F)(F)F)cc(C3CC3)c2)nc1 [Example 89, (2-((3-cyclopropyl-5-(trifluoromethoxy)benzyl)ami-no)pyrimidin-5-yl)(2,2-dimethylazetidin-1-yl)methanone]
100 to 1000	O=C(c1cnc(NCc2cc(OC(F)(F)F)cc(C3CC3)c2)nc1)N1CCc2cccnc21 [Example 90, (2-((3-cyclopropyl-5-(trifluoromethoxy)benzyl)ami-no)pyrimidin-5-yl)(2,3-dihydro-1H-pyrrolo[2,3-b]pyridin-1-yl)methanone]
100 to 1000	O=C(c1cnc(NCc2cc(OC(F)(F)F)cc(C3CC3)c2)nc1)N1CCc2cnccc21 [Example 91, (2-((3-cyclopropyl-5-(trifluoromethoxy)benzyl)ami-no)pyrimidin-5-yl)(2,3-dihydro-1H-pyrrolo[3,2-c]pyridin-1-yl)methanone]
< 100	CC(C)(C)OC(=O)N1CC2(CCN2C(=O)c2cnc(NCc3cc(OC(F)(F)F)cc(C4CC4)c3)nc2)C1 [Example 92, tert-butyl 1-(2-((3-cyclopropyl-5-(trifluoro-methoxy)benzyl)amino)py-rimidine-5-carbonyl)-1,6-diazaspiro[3.3]heptane-6-carboxylate]
< 100	CC1CC(C)N1C(=O)c1cnc(NCc2cc(OC(F)(F)F)cc(C3CC3)c2)nc1 (centres unmarked) [Example 93, (2-((3-cyclopropyl-5-(trifluoromethoxy)benzyl)ami-no)pyrimidin-5-yl)(2,4-dimethylazetidin-1-yl)methanone]
100 to 1000	COC[C@@H]1CCCN1C(=O)c1cnc(NCc2cc(OC(F)(F)F)cc(C3CC3)c2)nc1 [Example 94, (S)-(2-((3-cyclopropyl-5-(trifluoromethoxy)benzyl)ami-no)pyrimidin-5-yl)(2-(methoxymethyl)pyrrolidin-1-yl)methanone]

Source: US20210363152A1, “AMINOAZINE AMIDES” (Hoffmann-La Roche Inc., priority 2018, published 2021)
